In one experiment the target is Wild-type RET kinase (Homo sapiens, UniProt P07949). Nature of the experiment: HTRF method for testing the inhibitory activity of compounds against RET. Format: biochemical. A general note: In TR-FRET formats the signal depends on donor and acceptor labels being close together.
The target in another experiment is T1, Ba/F3-KIF5B-RET cell (Homo sapiens, UniProt P07949).
T1 construct: fused on or other part: P33176 (Kinesin-1 heavy chain)
Nature of the experiment: CellTiter-Glo luminescence assay, inhibitory activity against Ba/F3-KIF5B-RET cell. Format: cell-based. Particulars: 72 h, read-out: Ba/F3-KIF5B-RET cell activity. The source says: (C) In Vitro Screening Experiment - CellTiter-Glo Luminescence Assay for Testing The inhibitory activity of compounds against Ba/F3-KIF5B-RET cell
• 1. The mammalian cell expression vector containing human KIF5B-RET cDNA was introduced into Ba/F3 cells using the Neon® transfection system method, and the surviving clones screened by puromycin were subjected to cell growth inhibitory function experiments and Western blotting to verify cell lines with stable and high expression of RET. • 2. Cells were cultured in RPMI 1640 medium containing 10% fetal bovine serum, 1% penicillin-streptomycin, and 2 µg/mL puromycin, and then placed in a 37° C., 5% carbon dioxide cell incubator. • 3. The test compound (5 mM stock) was diluted 2.5 folds to […] with 100% dimethyl sulfoxide; and the compound was diluted into 10 concentrations at an equal ratio of 1:3 in a 384-well dilution plate. • 4. 0.2 µL of the serially diluted compound was added to a 384-well cell culture plate (Corning, 3570) using an Echo 550 pipetting system, 2 replicate wells for each concentration, and the final concentration of dimethyl sulfoxide was 0.5% (v/v). The gradient concentrations of the test compound were 5000, 1666.7, 555.5, 185.18, 61.72, 20.57, 6.858, 2.286, 0.764, 0.254 nM. • 5. 40 µL of Ba/F3-KIF5B-RET cell suspension containing 800 cells was added to each well, and incubated for 72 h in a 5% CO2 cell incubator. • 6. 20 µL of Cell Titer-Glo reagent was added to each well of the cell culture plate, and the culture system was then shaken and mixed thoroughly for 2 min to lyse the cells, the cells were then incubated at room temperature for 30 min, and the […] signal values were then read with an Envision 2104 microplate reader. • 7. By fitting the data with XLFit 5.0 based on the parameters formula, the IC50 value was calculated as: • [formula]
(In general: ATP-based viability assays read luminescence as a measure of living cells.)

The mark [1] stands for this setting: HTRF, read-out: Wild-type RET kinase.

Like-named read-outs stand apart in the source and are kept apart here.

Experimental findings from patent US20230219979A1, “PYRAZOLO[1,5-a]PYRIDINE COMPOUND, PREPARATION METHOD THEREFOR AND USE THEREOF” (SHENZHEN ZHONGGE BIOLOGICAL TECHNOLOGY CO., LTD., priority 2019, published 2023) are described below.

Sequence of Wild-type RET kinase (P07949 29-1114): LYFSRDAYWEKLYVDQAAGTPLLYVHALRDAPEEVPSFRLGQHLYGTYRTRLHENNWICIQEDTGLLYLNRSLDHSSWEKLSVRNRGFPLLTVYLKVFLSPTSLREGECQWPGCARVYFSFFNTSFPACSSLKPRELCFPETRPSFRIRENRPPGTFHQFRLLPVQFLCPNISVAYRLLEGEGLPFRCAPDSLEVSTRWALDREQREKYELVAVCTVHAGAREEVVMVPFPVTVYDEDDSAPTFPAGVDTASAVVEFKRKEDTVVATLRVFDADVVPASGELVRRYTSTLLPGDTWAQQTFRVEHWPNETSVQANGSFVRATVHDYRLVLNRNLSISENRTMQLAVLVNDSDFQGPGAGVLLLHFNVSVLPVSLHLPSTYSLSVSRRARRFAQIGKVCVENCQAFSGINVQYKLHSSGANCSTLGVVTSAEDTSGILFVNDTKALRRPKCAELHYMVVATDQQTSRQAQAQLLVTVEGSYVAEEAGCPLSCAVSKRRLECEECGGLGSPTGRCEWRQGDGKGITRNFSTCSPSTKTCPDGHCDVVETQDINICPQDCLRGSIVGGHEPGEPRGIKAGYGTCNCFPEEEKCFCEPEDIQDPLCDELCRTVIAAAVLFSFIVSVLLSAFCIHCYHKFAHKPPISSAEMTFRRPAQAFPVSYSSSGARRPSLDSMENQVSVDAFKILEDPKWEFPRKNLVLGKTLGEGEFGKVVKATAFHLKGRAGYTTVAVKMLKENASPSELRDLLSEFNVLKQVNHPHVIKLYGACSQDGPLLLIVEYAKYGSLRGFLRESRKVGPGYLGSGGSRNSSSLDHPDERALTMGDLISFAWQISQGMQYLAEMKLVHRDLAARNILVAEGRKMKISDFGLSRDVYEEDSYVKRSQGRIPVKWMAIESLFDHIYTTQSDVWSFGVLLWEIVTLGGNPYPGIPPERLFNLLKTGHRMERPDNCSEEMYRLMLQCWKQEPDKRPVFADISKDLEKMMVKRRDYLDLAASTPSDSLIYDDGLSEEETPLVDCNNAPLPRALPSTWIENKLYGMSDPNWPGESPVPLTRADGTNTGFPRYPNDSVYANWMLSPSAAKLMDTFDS
T1 sequence (P07949 whole entry, change not shown, the tested form may be a part): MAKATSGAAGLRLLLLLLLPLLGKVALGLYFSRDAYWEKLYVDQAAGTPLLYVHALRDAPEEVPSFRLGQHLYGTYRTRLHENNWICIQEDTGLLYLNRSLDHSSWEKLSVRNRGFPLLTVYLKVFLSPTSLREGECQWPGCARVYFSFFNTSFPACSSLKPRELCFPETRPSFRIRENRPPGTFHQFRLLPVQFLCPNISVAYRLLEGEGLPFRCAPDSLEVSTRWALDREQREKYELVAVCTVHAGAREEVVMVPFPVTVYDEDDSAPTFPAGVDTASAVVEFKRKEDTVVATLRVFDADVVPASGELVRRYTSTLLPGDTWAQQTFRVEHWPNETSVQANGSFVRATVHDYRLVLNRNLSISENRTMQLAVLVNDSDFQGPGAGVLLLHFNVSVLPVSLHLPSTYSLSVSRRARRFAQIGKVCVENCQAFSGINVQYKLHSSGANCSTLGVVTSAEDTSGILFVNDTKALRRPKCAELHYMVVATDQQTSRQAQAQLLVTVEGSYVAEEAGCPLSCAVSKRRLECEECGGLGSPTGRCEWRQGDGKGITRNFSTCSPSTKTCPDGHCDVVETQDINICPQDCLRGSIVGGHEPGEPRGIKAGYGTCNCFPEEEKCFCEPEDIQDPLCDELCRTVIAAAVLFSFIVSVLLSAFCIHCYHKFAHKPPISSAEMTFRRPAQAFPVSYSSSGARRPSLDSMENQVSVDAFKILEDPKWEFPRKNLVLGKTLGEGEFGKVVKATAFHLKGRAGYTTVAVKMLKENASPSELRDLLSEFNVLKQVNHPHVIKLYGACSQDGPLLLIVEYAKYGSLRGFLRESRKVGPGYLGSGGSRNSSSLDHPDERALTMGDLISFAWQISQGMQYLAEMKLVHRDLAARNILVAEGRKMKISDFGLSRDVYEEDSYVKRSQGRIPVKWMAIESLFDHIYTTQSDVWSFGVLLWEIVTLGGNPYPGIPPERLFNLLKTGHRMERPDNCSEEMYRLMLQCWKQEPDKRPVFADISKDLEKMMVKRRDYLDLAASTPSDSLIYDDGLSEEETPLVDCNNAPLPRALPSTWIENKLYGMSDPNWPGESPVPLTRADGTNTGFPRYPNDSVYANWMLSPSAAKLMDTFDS

On to `CCNC(=O)c1cnn2cc(-c3cnn(C)c3)cc(-c3ccc(N4CCN(c5ccc(OC)nc5)CC4)nc3)c12` [Compound 3, N-ethyl-4-(6-(4-(6-methoxypyridin-3-yl)piperazin-1-yl)pyridin-3-yl)-6-(1-methyl-1H-pyridinoxazol-4-yl)H-pyrazolo[1,5-a]pyridine-3-carboxamide], for which the IC50 on Wild-type RET kinase (setting [1]) was above 10000 nM.

Consider `COc1ccc(CN2CCN(c3ccc(-c4cc(-c5cnn(C)c5)cn5ncc(NC(C)=O)c45)cn3)CC2)cn1` [Compound 4, N-(4-(6-(4-((6-methoxypyridin-3-yl)methyl)piperazin-1-yl)pyridin-3-yl)-6-(1-methyl-1H-pyrazol-4-yl)pyrazol[1,5-a]pyridin-3-yl)acetamide], for which the IC50 on Wild-type RET kinase (setting [1]) was determined as 6590 nM.

`COc1ccc(CN2CCN(c3ccc(-c4cc(-c5cnn(C)c5)cn5ncc(C(=O)NC(C)C)c45)cn3)CC2)cn1` [Compound 5]: the IC50 on Wild-type RET kinase (setting [1]) was above 10000 nM.

On to `CNC(=O)c1cnn2cc(-c3cnn(C)c3)cc(-c3ccc(N4CCN(Cc5ccc(OC)nc5)CC4)nc3)c12` [Compound 6], for which the IC50 at Wild-type RET kinase (setting [1]) was 678 nM.

In the case of `CNC(=O)Nc1cnn2cc(-c3cnn(C)c3)cc(-c3ccc(N4CCN(Cc5ccc(OC)nc5)CC4)nc3)c12` [Compound 9, 1-(4-(6-(4-((6-methoxypyridin-3-yl)methyl)piperazin-1-yl)pyridin-3-yl)-6-(1-methyl-1H -pyrazol-4-yl)pyrazolo[1,5-a]pyridin-3-yl)-3-methylurea], the IC50 on Wild-type RET kinase (setting [1]) is above 10000 nM.

For the molecule `COc1ccc(CN2CCN(c3ccc(-c4cc(-c5cnn(C)c5)cn5ncc(NC(=O)C6CC6)c45)cn3)CC2)cn1` [Compound 10, N-(4-(6-(4-((6-methoxypyridin-3-yl)methyl)piperazin-1-yl)pyridin-3-yl)-6-(1-methyl-1H-pyrazol-4-yl)pyrazolo[1,5-a]pyridin-3-yl)cyclopropanecarboxamide], the IC50 on Wild-type RET kinase (setting [1]) was above 10000 nM.

For the molecule `COc1ccc(CN2CCN(c3ccc(-c4cc(-c5cnn(C)c5)cn5ncc(NC(=O)c6ccccc6)c45)cn3)CC2)cn1` [Compound 11, N-(4-(6-(4-((6-methoxypyridin-3-yl)methyl)piperazin-1-yl)pyridin-3-yl)-6-(1-methyl-1H-pyrazol-4-yl)pyrazolo[1,5-a]pyridin-3-yl)benzamide], the IC50 on Wild-type RET kinase (setting [1]) was above 10000 nM.

For the molecule `COc1ccc(CN2CCN(c3ccc(-c4cc(-c5cnn(C)c5)cn5ncc(NC(=O)c6cncn6C)c45)cn3)CC2)cn1` [Compound 12, N-(4-(6-(4-((6-methoxypyridin-3-yl)methyl)piperazin-1-yl)pyridin-3-yl)-6-(1-methyl-1H-pyrazol-4-yl)pyrazolo[1,5-a]pyridin-3-yl)-1-methyl-1H-imidazole-5-carboxamide], the IC50 on Wild-type RET kinase (setting [1]) is above 10000 nM.

As to `COc1ccc(CN2CCN(c3ccc(-c4cc(OCCN5CC6(COC6)C5)cn5ncc(C#N)c45)cn3)CC2)cn1` [Compound 13, 6-(2-(2-oxa-6-azaspiro[3.3]hept-6-yl)ethoxy)-4-(6-(4-((6-methoxypyridin-3-yl)methyl)piperazin-1-yl)pyridin-3-yl)pyrazolo[1,5-a]pyridine-3-carbonitrile], at Ba/F3-KIF5B-RET cell, the GI50 turned out to be 224 nM. On Wild-type RET kinase (setting [1]), the IC50 is 0.8 nM.

Take `COc1ccc(CN2CCN(c3ccc(-c4cc(OCCN5CCC6(CCOCC6)CC5)cn5ncc(C#N)c45)cn3)CC2)cn1` [Compound 14, 6-(2-(3-oxa-9-azaspiro[5.5]undec-9-yl)ethoxy)-4-(6-(4-((6-methoxypyridine-3-yl)methyl)piperazin-1-yl)pyridin-3-yl)pyrazolo[1,5-a]pyridine-3-carbonitrile]: the GI50 on Ba/F3-KIF5B-RET cell was 260 nM. On Wild-type RET kinase (setting [1]), the IC50 came to 1.6 nM.

For the molecule `COc1ccc(CN2CCN(c3ccc(-c4cc(OCCN5CC6CCC5C6)cn5ncc(C#N)c45)cn3)CC2)cn1` (centres unmarked) [Compound 15, 6-(2-(2-azabicyclo[2.2.1]hept-2-yl)ethoxy)-4-(6-(4-((6-methoxypyridin-3-yl)methyl)piperazin-1-yl)pyridin-3-yl)pyrazolo[1,5-a]pyridine-3-carbonitrile], the GI50 on Ba/F3-KIF5B-RET cell worked out at 225 nM. Also, the IC50 on Wild-type RET kinase (setting [1]) turned out to be 1.4 nM.

With `COc1ccc(CN2CCN(c3ccc(-c4cc(OCCN5CC6CC6C5)cn5ncc(C#N)c45)cn3)CC2)cn1` (centres unmarked) [Compound 16, 6-(2-(3-azabicyclo[3.1.0]hex-3-yl)ethoxy)-4-(6-(4-((6-methoxypyridin-3-yl)methyl)piperazin-1-yl)pyridin-3-yl)pyrazolo[1,5-a]pyridine-3-carbonitrile], the GI50 at Ba/F3-KIF5B-RET cell worked out at 203 nM. The IC50 on Wild-type RET kinase (setting [1]) worked out at 1.1 nM.

In the case of `COc1ccc(CN2C3CC2CN(c2cnc(-c4cc(OCCN5CC6CCCNC6C5)cn5ncc(C#N)c45)cn2)C3)cn1` (centres unmarked) [Compound 17, 4-(5-(6-((6-methoxypyridin-3-yl)methyl)-3,6-diazabicyclo[3.1.1]hept-3-yl)pyrazin-2-yl)-6-(2-(octahydro-6H-pyrrole[3,4-b]pyridin-6-yl)ethoxy)pyrazolo[1,5-a]pyridine-3-carbonitrile], the GI50 at Ba/F3-KIF5B-RET cell worked out at 61.1 nM. For the same molecule, the IC50 at Wild-type RET kinase (setting [1]) amounted to 0.32 nM.

On Wild-type RET kinase, `CCNC(=O)Oc1cc(-c2cnc(N3CC4CC(C3)N4Cc3ccc(OC)nc3)cn2)c2c(C#N)cnn2c1` [Compound 42, 3-cyano-4-(5-(6-((6-methoxypyridin-3-yl)methyl)-3,6-diazabicyclo[3.1.1]heptan-3-yl)pyrazin-2-yl)pyrazolo[1,5-a]pyridin-6-ylethylcarbamate] gave an IC50 of 9.2 nM.

Turning to `COc1ccc(CN2C3CC2CN(c2cnc(-c4cc(NCC5CC5)cn5ncc(C#N)c45)cn2)C3)cn1` [Compound 53], the IC50 at Wild-type RET kinase (setting [1]) came to 5.54 nM.

For the molecule `COc1ccc(CN2C3CC2CN(c2ccc(-c4cc(NCC5CCOCC5)cn5ncc(C#N)c45)cn2)C3)cn1` [Compound 54, 4-(6-(6-((6-methoxypyridin-3-yl)methyl)-3,6-diazabicyclo[3.1.1]heptyl-3-yl)pyridin-3-yl)-6-(((-2H-pyran-4-yl)methyl)amino)pyrazolo[1,5-a]pyridine-3-carbonitrile], the IC50 at Wild-type RET kinase (setting [1]) worked out at 2.76 nM.

As to `COc1ccc(CN2C3CC2CN(c2cnc(-c4cc(N(C)CCN(C)C)cn5ncc(C#N)c45)cn2)C3)cn1` [Compound 58, 6-((2-(dimethylamino)ethyl)(methyl)amino)-4-(5-(6-((6-methoxypyridin-3-yl)methyl)-3,6-diazabicyclo[3.1.1]heptan-3-yl)pyrazin-2-yl)pyrazolo[1,5-a]pyridine-3-carbonitrile], at Wild-type RET kinase (setting [1]), the IC50 was found to be 10.4 nM.

Take `COc1ccc(CN2C3CC2CN(c2ccc(-c4cc(NCC5CCCCC5)cn5ncc(C#N)c45)cn2)C3)cn1` [Compound 60, 6-((cyclohexylmethyl)amino)-4-(6-(6-((6-methoxypyridin-3-yl)methyl)-3,6-diazabicyclo[3.1.1]heptan-3-yl)pyridin-3-yl)pyrazolo[1,5-a]pyridine-3-carbonitrile]: the IC50 at Wild-type RET kinase (setting [1]) amounted to 29.6 nM.

For the molecule `COc1ccc(CN2C3CC2CN(c2ccc(-c4cc(NCC5CCN(C)CC5)cn5ncc(C#N)c45)cn2)C3)cn1` [Compound 64], the IC50 on Wild-type RET kinase (setting [1]) is 4.83 nM.

Regarding `COc1ccc(CN2C3CC2CN(c2ccc(-c4cc(NCC5CCOC5)cn5ncc(C#N)c45)cn2)C3)cn1` (centres unmarked) [Compound 65, 4-(6-(6-((6-methoxypyridin-3-yl)methyl)-3,6-diazabicyclo[3.1.1]heptyl-3-yl)pyridin-3-yl)-6-(((tetrahydrofuran-3-yl)methyl)amino)pyrazolo[1,5-a]pyridine-3-carbonitrile], the IC50 on Wild-type RET kinase (setting [1]) is 6.05 nM.

Take `COc1ccc(CN2C3CC2CN(c2ccc(-c4cc(OCC(C)(C)O)cn5ncc(C#N)c45)cn2)C3)cn1` [LOXO-292, reference compound]: the GI50 at Ba/F3-KIF5B-RET cell stood at 7.08 nM.
